According to patent US20120010161A1, “NOVEL AZAPEPTIDE OR AZAPEPTIDOMIMETIC COMPOUNDS INHIBITING BCRP AND/OR P-GP” (CENTRE NATIONAL DE LA RECHERCHE SCIENTIFIQUE, priority 2009, published 2012):
Values joined by “and” are separate entries in the source; they are usually repeats but may differ in a detail not shown here. Identical values can stand only once.

Biological target: T1, BCRP/ABCG2 (Homo sapiens, UniProt Q9UNQ0)
T1 construct: expressed in transfected cells; host or cells: HEK-293 transfected with pcDNA3.1-ABCG2
T1 sequence (Q9UNQ0 1-655): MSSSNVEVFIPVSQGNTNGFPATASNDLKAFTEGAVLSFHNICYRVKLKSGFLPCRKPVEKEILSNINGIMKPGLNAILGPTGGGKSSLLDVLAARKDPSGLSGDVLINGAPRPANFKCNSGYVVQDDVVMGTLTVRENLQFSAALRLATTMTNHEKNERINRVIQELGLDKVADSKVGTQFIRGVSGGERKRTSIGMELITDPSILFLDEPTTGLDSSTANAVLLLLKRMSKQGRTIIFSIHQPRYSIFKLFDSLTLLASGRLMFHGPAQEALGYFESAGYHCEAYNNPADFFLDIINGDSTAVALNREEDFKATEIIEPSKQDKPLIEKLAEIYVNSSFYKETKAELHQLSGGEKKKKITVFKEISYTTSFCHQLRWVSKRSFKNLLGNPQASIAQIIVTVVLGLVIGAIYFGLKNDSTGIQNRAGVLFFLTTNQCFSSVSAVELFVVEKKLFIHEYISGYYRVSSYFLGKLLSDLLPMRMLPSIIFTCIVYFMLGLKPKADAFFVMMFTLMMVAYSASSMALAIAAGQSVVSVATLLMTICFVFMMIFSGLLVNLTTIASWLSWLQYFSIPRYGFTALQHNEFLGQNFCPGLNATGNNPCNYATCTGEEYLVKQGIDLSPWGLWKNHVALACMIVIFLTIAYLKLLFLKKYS
Test: Flow cytometry: mitoxantrone efflux induced by ABCG2 in transfected HEK-293 cells
Assay type: cell-based
Conditions: for inhibition at 2 μM / inhibition at 10 μM: human, HEK-293 cells transfected with ABCG2 (vector pcDNA3.1), probe mitoxantrone (5 μM); for inhibition at 2 μM: 2 μM compound, read-out: BCRP/ABCG2 % efficacy 2 μM; for inhibition at 2 μM / inhibition at 10 μM / IC50 / BCRP/ABCG2 IC50, μM: mitoxantrone efflux, HEK-293 cells; for inhibition at 10 μM: 10 μM compound, three independent experiments, read-out: BCRP/ABCG2 % efficacy 10 μM
Description: Cell cultures. The human […] HEK-293 transfected with the vector pcDNA3.1 including or not the gene encoding ABCG2 (Robey, R. W., Honjo, Y., Morisaki, K., Nadjem, T. A., Runge, S., Risbood, M., Poruchynsky, M. S., Bates, S. E. 2003, Br. J. Cancer 89(10) 1971-1978) was used to test the efficacy of the products on ABCG2. The newborn hamster kidney cell line BHK21 either natural (negative control) or transfected with the vector pNUT-MRP/His expressing the gene encoding ABCC1 (Chang, Xiu-Bao, Hou, Yue-Xian, Riordan, John R. 1997, J. Biol. Chem. 272(49) 30962-30968) was used to test the efficacy of the products on ABCC1. The cell line NIH3T3 natural or transfected with the vector pHaMDR1/A expressing ABCB1 (Cardarelli, Carol O., Aksentijevich, Ivan, Pastan, Ira, Gottesman, Michael M. 1995 Cancer Res. 55 1086-1091) was used to test the efficacy of the compounds on ABCB1. The various cell types are cultured according to the protocols described previously (Robey, R. W., Honjo, Y., Morisaki, K., Nadjem, T. A., Runge, S., Risbood, M., Poruchynsky, M. S., Bates, S. E. 2003, Br. J. Cancer 89(10) 1971-1978 for the line HEK293, Chang, Xiu-Bao, Hou, Yue-Xian, Riordan, John R. 1997, J. Biol. Chem. 272(49) 30962-30968 for the line BHK21 and Cardarelli, Carol O., Aksentijevich, Ivan, Pastan, Ira, Gottesman, Michael M. 1995 Cancer Res. 55 1086-1091 for the line NIH3T3).
FIG. 1 schematically illustrates an efflux of substrate induced by a typical ABC transporter. The substrates S, such as mitoxantrone effluxed with ABCG2 and ABCB1 or daunorubicin effluxed with ABCC1, are accumulated in the cells and expelled by the transporter T, leading to a decrease in intracellular fluorescence. In the case of accumulation of the product, typically by inhibition of the efflux protein, the intracellular fluorescence increases.
Flow cytometry. Transfected or untransfected HEK-293 and BHK-21 cells are in a first stage placed in contact with substrate (5 μM mitoxantrone or 1 μM daunorubicin depending on the transporter). The substrate is accumulated for 30 minutes at 37° C. in the presence or absence of varied concentrations of the test molecules, at 0.5% of DMSO final. After washing with PBS, the cells are incubated in medium containing the same concentrations of test molecules as previously, for 1 hour at 37° C. The drug intracellular fluorescence is measured with a FACscan flow cytometer (Becton Dickinson, Mountain View, Calif.). The fluorescent substrates are excited at 488 nm; the fluorescence emission of mitoxantrone (MTX) is measured at 650 nm and that of daunorubicin is measured at 530 nm. The efficacy of the test molecules is estimated by means of equation 1:
% efficacy=100×(FA−FBG)/(FC−FBG),
in which: • FA corresponds to the intracellular level of substrate measured in the cells overexpressing the transporter T (corresponding to the lowest level of fluorescence in the absence of inhibitor), • FC corresponds to the fluorescence in the control cells not expressing the test transporter. This is thus the maximum accumulation of substrate in the cells), • FBG corresponds to the fluorescence measured in the absence of substrate and in the presence of inhibitor.
The compounds presented in TABLES 2 to 5 were tested by flow cytometry on mammalian cell lines selectively expressing the efflux proteins ABCG2, ABCB1 or ABCC1, as described previously.
The mitoxantrone efflux induced by ABCG2 or ABCB1 and the daunorubicin efflux induced by ABCC1 are estimated by flow cytometry, as described previously, at 10 μM of each test compound, and then at 2 μM for the compounds showing at least 80% efficacy at 10 μM. The concentration inducing 50% inhibition (IC50) was estimated for the most efficient aza derivatives. The values are obtained by three independent experiments and were adjusted using the SigmaPlot software.

CC(C)(C)OC(=O)NN(C(=O)N[C@@H](CCCCNC(=O)OCc1ccccc1)C(=O)OC(C)(C)C)c1ccccc1C(=O)OCc1ccccc1 [IA.1, tert-Butyl ester of (2S)-6-(benzyloxycarbonylamino)-2-[1-(2′-(benzyloxycarbonyl)phenyl)-2-(tert-butoxycarbonyl)hydrazino-carbonylamino]hexanoic acid]
inhibition at 2 μM: 53 ± 10%
inhibition at 10 μM: 112 ± 6%
IC50: 2000 nM

CC(C)(C)OC(=O)NN(C(=O)N[C@@H](CCCCNC(=O)OCc1ccccc1)C(=O)OC(C)(C)C)c1cccc(C(=O)OCc2ccccc2)c1 [IA.2, tert-Butyl ester of (2S)-6-(benzyloxycarbonylamino)-2-[1-(3′-(benzyloxycarbonyl)phenyl)-2-(tert-butoxycarbonyl)hydrazino-carbonylamino]hexanoic acid]
selectivity toward one or other of the proteins BCRP or P-gp (BCRP versus P-gp): selective
inhibition at 2 μM: 86 ± 14%
inhibition at 10 μM: 112 ± 26%
IC50: 1000 nM and 1060 nM

CC(C)(C)OC(=O)N[C@H](CNN(CCCCCCNC(=O)OCc1ccccc1)C(=O)OC(C)(C)C)CC(=O)OCc1ccccc1 [IB.1, Benzyl ester of (3S)-4-[2-(6-benzyloxycarbonylaminohexyl)-2-tert-butoxycarbonylhydrazino]-3-tert-butoxycarbonylaminobutyric acid]
inhibition at 2 μM: 72 ± 1%
inhibition at 10 μM: 87 ± 27%
BCRP/ABCG2 IC50, μM: micromolar or submicromolar
IC50: 900 ± 50 nM

CC(C)(C)OC(=O)N[C@H](CNN(CCCCCCNC(=O)OCc1ccccc1)C(=O)OCc1ccccc1)CC(=O)OCc1ccccc1 [IB.11, Benzyl ester of (3S)-4-[2-benzyloxycarbonyl-2-(6-benzyloxycarbonylaminohexyl)hydrazino]-3-tert-butoxycarbonyl-aminobutyric acid]
inhibition at 2 μM: 92 ± 2%
inhibition at 10 μM: 104 ± 10%
BCRP/ABCG2 IC50, μM: micromolar or submicromolar
IC50: 500 ± 50 nM
